According to patent US10604529B2, “Fused imidazole compound having indoleamine 2,3-dioxygenase inhibitory activity” (SHENZHEN CHIPSCREEN BIOSCIENCES CO., LTD., priority 2016, dated 2020):

Key:
[1] = molecular target: T1, Recombinant human IDO enzyme (IDO1 enzyme) (Homo sapiens, UniProt P14902); experiment: In vitro IDO enzymatic activity assay (kynurenine colour reaction, 492 nm); type: biochemical; conditions: tested compound concentration 200 nM; recombinant human IDO1; read-out: IDO Enzymatic Inhibition Rate (%) (200 nM)
T1 construct: purchased BPS Bioscience, USA
Method: The basic principle of the in vitro IDO enzymatic activity detection is to use the IDO enzyme to metabolize the substrate L-tryptophan to produce the product kynurenine in an in vitro enzyme-catalyzed reaction system. The kynurenine is yellow in color reaction with p-dimethylaminobenzaldehyde in glacial acetic acid, and the absorbance value was measured at 492 nm on a microplate reader. The concentration of the product kynurenine in the sample is calculated by comparison to a standard curve of kynurenine with a known concentration.
Recombinant human IDO enzyme (IDO1 enzyme) was purchased from BPS Bioscience, USA.
(3) Control reactions were set up at the same time the detection reaction was carried out. including 0 inhibition positive control with no tested compound added and 0 enzyme negative control with no enzyme added. All tests were run in duplicate.
(4) After the enzymatic reaction was completed, 40 μl of a pre-formulated 30% (w/v) trichloroacetic acid solution was added, and reacted at 65° C. for 20 minutes, followed by centrifugation at 12,000 rpm for 15 minutes.
(5) 100 μl of the supernatant after centrifugation was pipetted and added to a 96-well plate. An equal volume of 2% p-dimethylaminobenzaldehyde in glacial acetic acid was added, well mixed, and allowed to stand at room temperature for 10 minutes.
(6) A microplate reader (ELX800NB) was used to detect the color signal of each well with a detection wavelength of 492 nm.
In addition, the enzymatic inhibition rates were calculated for the tested compounds of different concentration gradients, and then the enzymatic half maximal inhibitory concentration (IC50) was calculated using the IC50 calculator.
According to the above-mentioned method of experiment, the compound of the present disclosure was subjected to an in vitro IDO enzymatic IC50 assay using NLG919 as a positive control compound.

[2] = molecular target: T2, IFN-γ-induced IDO enzyme in HeLa cells (Homo sapiens, UniProt P14902); experiment: Detection of IDO inhibitory activity at the cellular level (IFN-γ-induced HeLa cells); type: cell-based; conditions: tested compound 1 μM, human IFN-γ 50 ng/ml, 48 hours, read-out: IDO Inhibitory Rate (%) (1 μM)
T2 construct: HeLa cells are human cervical cancer cell lines and can up-regulate the expression of endogenous IDO enzymes; endogenous in cells; host or cells: HeLa cells stimulated with human IFN-γ
From the text: In the present disclosure, IFN-γ-induced IDO enzyme expression in HeLa cells were used as a model to detect the IDO enzymatic inhibitory activity of the compound at the cellular level. HeLa cells are human cervical cancer cell lines and can up-regulate the expression of endogenous IDO enzymes under the induction of human IFN-γ. The cell supernatant can be subjected to detection of the enzyme-catalyzed product kynurenine by adding the substrate L-tryptophan to the cell culture solution. […] Recombinant human IFN-γ cytokine purchased from Sangon Biotech, Phenol red-free DMEM for cell culture purchased from Gibco. […] The cells were further cultured for 48 hours and detected. (2) 200 μl of the supernatant from the culture well was pipetted, 40 μl of a pre-formulated 30% (w/v) trichloroacetic acid solution was added, allowed to react at 65° C. for 20 minutes, and then centrifuged at 12,000 rpm for 15 minutes. (3) 100 μl of the supernatant after centrifugation was pipetted and added into a 96-well plate, an equal volume of 2% p-dimethylaminobenzaldehyde in glacial acetic acid was added, and they were mixed well and allowed to stand at room temperature for 10 minutes. (4) A microplate reader (ELX800NB) was used to detect the color signal of each well, and the detection wavelength was 492 nm.

T1 sequence (P14902 whole entry): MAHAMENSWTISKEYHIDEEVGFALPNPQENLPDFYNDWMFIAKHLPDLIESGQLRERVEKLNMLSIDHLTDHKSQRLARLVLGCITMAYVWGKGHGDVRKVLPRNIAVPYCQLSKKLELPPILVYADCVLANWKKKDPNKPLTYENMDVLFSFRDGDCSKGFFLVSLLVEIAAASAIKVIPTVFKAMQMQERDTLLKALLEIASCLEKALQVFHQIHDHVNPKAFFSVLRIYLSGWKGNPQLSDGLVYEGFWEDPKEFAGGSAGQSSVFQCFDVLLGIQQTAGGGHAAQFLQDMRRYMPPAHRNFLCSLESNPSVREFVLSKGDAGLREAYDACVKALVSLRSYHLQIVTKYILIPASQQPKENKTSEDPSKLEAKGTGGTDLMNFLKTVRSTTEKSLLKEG
T2 sequence (P14902 whole entry): as above

Structure (SMILES) | inhibition at 0.2 µM [1] [%] | inhibition at 1 µM [2] [%]
CN(CC(=O)N1CCC(C(O)CC2c3ccccc3-c3cncn32)CC1)c1ccc(C(F)(F)F)cc1 (stereo not drawn) [Example 89, 1-(4-(1-hydroxy-2-(5H-imidazo[5,1-a]isoindol-5-yl)ethyl)piperidin-1-yl)-2-(methyl(4-trifluoromethylphenyl)amino)ethyl-1-one] | 68 | 85
CN(CC(=O)N1CCC(C(O)CC2c3ccccc3-c3cncn32)CC1)c1cccc(C(F)(F)F)c1 (stereo not drawn) [Example 94, 1-(4-(1-hydroxy-2-(5H-imidazo[5,1-a]isoindol-5-yl)ethyl)piperidin-1-yl)-2-(methyl(3-trifluoromethylphenyl)amino)ethyl-1-one] | 84 | 98
CN(CC(=O)N1CCC(C(O)CC2c3ccccc3-c3cncn32)CC1)c1ccc(C#N)cc1 (stereo not drawn) [Example 98] | 81 | 83

Second part, the molecule after the results:

inhibition at 0.2 µM [1] [%] | inhibition at 1 µM [2] [%] | Structure (SMILES)
85 | 95 | COc1cccc(N(C)CC(=O)N2CCC(C(O)CC3c4ccccc4-c4cncn43)CC2)c1 (stereo not drawn) [Example 102, 2-((3-methoxyphenyl)(methyl)amino)-1-(4-(1-hydroxy-2-(5H-imidazo[5,1-a]isoindol-5-yl)ethyl)piperidin-1-yl)ethyl-1-one]
84 | 91 | CN(CC(=O)N1CCC(C(O)CC2c3ccccc3-c3cncn32)CC1)c1ccc([N+](=O)[O-])cc1 (stereo not drawn) [Example 105, 1-(4-(1-hydroxy-2-(5H-imidazo[5,1-a]isoindol-5-yl)ethyl)piperidin-1-yl)-2-(methyl(4-nitrophenyl)atnino)ethyl-1-one]
75 | 74 | CN(CC(=O)N1CCC(C(O)CC2c3ccccc3-c3cncn32)CC1)c1ccc2ncccc2c1 (stereo not drawn) [Example 113, 1-(4-(1-hydroxy-2-(5H-imidazo[5,1-a]isoindol-5-yl)ethyl)piperidin-1-yl)-2-(methyl(quinolin-6-yl)amino)ethyl-1-one]
